Like-named read-outs stand apart in the source and are kept apart here.
Test system: passive cutaneous anaphylaxis
Test: Passive cutaneous anaphylaxis (PCA) in rats;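 note: male rats, challenged with antigen plus Evans blue three days post sensitization, killed 30 min later, dorsal skin bluing graded on a five point scale, summed over four sites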
Format: in vivo
Details: dosed immediately prior to intravenous challenge, rats sensitized intradermally with anti-ovalbumen antiserum; for ED50: Rattus norvegicus
[1] = po, read-out: ED 50 p.o. (dose of drug giving 50% inhibition), p.o.
[2] = read-out: ED 50 i.v. (dose of drug giving 50% inhibition), i.v.

Protocol: Cutaneous anaphylaxis can be induced in rats by intradermal (ID) sensitization with antiserum followed three days later by systemic challenge with antigen. Evans blue dye injected with the antigen is used as a marker to assess the severity of the local response. […] Brown: Pergamon Press: --male rats weighing 180-220 grams are used in groups of seven.
Preparation of Antigen for Sensitization (Alum precipitated ovalbumen)
Wash 120 grams of Al(OH)3 in 140 ml of saline (use of a macerater facilitates mixing).
Centrifuge at 3,000 r.p.m. for about 10 minutes.
Resuspend the precipiate with 300 ml of albumen egg powder (1.3 mg/ml) in saline and allow to stand for 30 minutes.
Centrifuge at 3,000 r.p.m. for 10 minutes.
Weigh the wet precipitate and to each gram weight add 1 ml of saline. Store in refrigerator (Quantity sufficient for 60 rats for a 3 day sensitization program).
Preparation of Antiserum (anti-ovalbumen)
1 ml of the alum precipitated ovalbumen was injected subcutaneously into rats weighing 180-200 grams on days 0,2,4. The rats were bled on day 14 either by cardiac puncture or via the dorsal abdominal aorta. Equal quantities of serum from each animal were pooled and thoroughly mixed and 2 ml aliquots were stored at -20° C. in plastic tubes.
The animals were then left for a period of three days to develop sensitization.
The injections were speeded up by using an automatic 1 ml self-filling glass syringe. The "challenged" rats were killed after 30 minutes, usually pithed) and their skin on the dorsal surface was removed. The degree and area of blueing, proportional to the anaphylactic reaction was assessed on a five point scoring system.
Total scores for sites 1,2,3 and 4=X
2. mean value of X for each group=X

Molecule | ED50 [1] | ED50 [2] | ED 50 i.v. (dose of drug giving 50% inhibition) (i.v.) | ED 50 p.o. (dose of drug giving 50% inhibition) (p.o.)
CCCCCn1c(=O)c2cc(C(=O)O)cn2c2ccccc21 [Example 17, 5-n-pentyl-4,5-dihydro-4-oxo-pyrrolo[1,2-a]quinoxaline-2-carboxylic acid] | 0.31 mg/kg | 0.087 mg/kg | – | –
CC(C)n1c(=O)c2cc(C(=O)O)cn2c2ccccc21 [Example 18, 5-isopropyl-4,5-dihydro-4-oxo-pyrrolo[1,2-a]quinoxaline-2-carboxylic acid] | – | 0.85 mg/kg | – | –
C=CCn1c(=O)c2cc(C(=O)O)cn2c2ccccc21 [Example 19, 5-allyl-4,5-dihydro-4-oxo-pyrrolo[1,2-a]quinoxaline-2-carboxylic acid] | 0.28 mg/kg | 0.035 mg/kg | – | –
CCCCn1c(=O)c2cc(C(=O)OCC)cn2c2ccccc21 [Example 5, ethyl 5-n-butyl-4,5-dihydro-4-oxo-pyrrolo[1,2-a]quinoxaline-2-carboxylate] | 4.1 mg/kg | – | – | –
CCCCn1c(=O)c2cc(C(=O)O)cn2c2cc(Cl)ccc21 [Example 21, 5-n-butyl-8-chloro-4,5-dihydro-4-oxo-pyrrolo[1,2-a]quinoxaline-2-carboxylic acid] | 0.114 mg/kg | 0.019 mg/kg | – | –
CCn1c(=O)c2cc(C(=O)O)cn2c2ccccc21 [Example 14, 5-ethyl-4,5-dihydro-4-oxo-pyrrolo[1,2-a]quinoxaline-2-carboxylic acid] | 0.035 mg/kg | 0.026 mg/kg | – | –
O=C(O)c1cc2c(=O)n(C3CCCC3)c3ccccc3n2c1 [Example 20, 5-cyclopentyl-4,5-dihydro-4-oxo-pyrrolo[1,2-a]quinoxaline-2-carboxylic acid] | – | 0.37 mg/kg | – | –
CCCCn1c(=O)c2cc(C(=O)O)cn2c2cc(Cl)c(Cl)cc21 [Example 22, 5-n-butyl-7,8-dichloro-4,5-dihydro-4-oxo-pyrrolo[1,2-a]quinoxaline-2-carboxylic acid] | 0.117 mg/kg | 0.014 mg/kg | – | –
O=C(O)c1cc2c(=O)n(-c3ccccc3)c3ccccc3n2c1 [Example 13, 5-phenyl-4,5-dihydro-4-oxo-pyrrolo[1,2-a]quinoxaline-2-carboxylic acid] | 19 mg/kg | 1.57 mg/kg | – | –
CCOC(=O)c1cc2c(=O)n(C)c3ccccc3n2c1 [Example 1, ethyl 5-methyl-4,5-dihydro-4-oxo-pyrrolo[1,2-a]quinoxaline-2-carboxylate] | 7 mg/kg | – | – | –
5-n-butyl-7-(and 8)-nitro-4,5-dihydro-4-oxo-pyrrolo[1,2-a]quinoxaline-2-carboxylic acid [23(c)] | – | – | 0.025 mg/kg | 0.26 mg/kg
CCn1c(=O)c2cc(C(=O)O)cn2c2cc(Cl)ccc21 [24(d), 8-chloro-5-ethyl-4,5-dihydro-4-oxo-pyrrolo[1,2-a]quinoxaline-2-carboxylic acid] | 0.29 mg/kg | 0.035 mg/kg | – | –
Cn1c(=O)c2cc(C(=O)O)cn2c2ccccc21 [Example 12, 5-methyl-4,5-dihydro-4-oxo-pyrrolo[1,2-a]quinoxaline-2-carboxylic acid] | 0.54 mg/kg | 0.089 mg/kg | – | –
CCCCn1c(=O)c2cc(C(=O)O)cn2c2ccccc21 [Example 16, 5-n-butyl-4,5-dihydro-4-oxo-pyrrolo[1,2-a]quinoxaline-2-carboxylic acid] | 0.058 mg/kg | 0.019 mg/kg | – | –
CCCn1c(=O)c2cc(C(=O)O)cn2c2ccccc21 [Example 15, 5-n-propyl-4,5-dihydro-4-oxo-pyrrolo[1,2-a]quinoxaline-2-carboxylic acid] | 0.032 mg/kg | 0.019 mg/kg | – | –

Source: patent publication US4151280A, “Pyrroloquinoxalines” (Roussel Uclaf, priority 1977, dated 1979)
